Reference: US20060135773A1, “Trisubstituted nitrogen modulators of tyrosine phosphatases” (priority 2004, published 2006)

Biological target: T1, PTP-1B (Homo sapiens, UniProt P18031)
T1 construct: PTP-1B (purified, 1 mg/mL) as a 1:250 dilution
T1 sequence (P18031 1-321 limits assumed): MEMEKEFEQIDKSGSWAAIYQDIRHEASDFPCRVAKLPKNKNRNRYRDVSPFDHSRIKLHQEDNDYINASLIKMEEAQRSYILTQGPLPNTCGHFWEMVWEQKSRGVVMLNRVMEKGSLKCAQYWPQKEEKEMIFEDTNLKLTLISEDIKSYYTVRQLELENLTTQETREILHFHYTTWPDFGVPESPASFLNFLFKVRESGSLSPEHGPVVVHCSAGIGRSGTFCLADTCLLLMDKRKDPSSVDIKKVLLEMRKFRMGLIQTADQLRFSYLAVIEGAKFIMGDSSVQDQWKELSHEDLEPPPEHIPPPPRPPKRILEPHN
Assay: pNPP tyrosine phosphatase inhibition assay, PTP-1B
Assay type: biochemical
Conditions: pNPP assay, PTP-1B; read-out: Activity Class (IC50 ranges)
Procedure, shortened: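 Test compounds were screened at two final levels, 31.3 and 10 µM, against 4 µg/mL purified PTP-1B. The substrate was 10 mM p-nitrophenyl phosphate, with incubation for 10 min at 30°C before a K2CO3 quench. Activity was taken from A405.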

For `CCNc1ccc(S(=O)(=O)C(F)(F)F)cc1NC(=O)c1ccc(C)c(S(=O)(=O)N2CCCCC2)c1` [Compound 106, N-(2-Ethylamino-5-trifluoromethanesulfonyl-phenyl)-4-methyl-3-(piperidine-1-sulfonyl)-benzamide], the IC50 was greater than 25 µM.

`O=C(O)c1ccc(CN(Cc2ccc(C(F)(F)P(=O)(O)O)c(Br)c2)S(=O)(=O)c2ccccc2Cl)cc1` [Compound 107, 4-{[[3-Bromo-4-(difluoro-phosphono-methyl)-benzyl]-(2-chloro-benzenesulfonyl)-amino]-methyl}-benzoic acid] gave an IC50 of less than 0.099 µM.

With `COc1ccccc1S(=O)(=O)N(Cc1ccc(S(C)(=O)=O)cc1)Cc1ccc(C(F)(F)P(=O)(O)O)c(Br)c1` [Compound 108, [(2-Bromo-4-{[(4-methanesulfonyl-benzyl)-(2-methoxy-benzenesulfonyl)-amino]-methyl}-phenyl)-difluoro-methyl]-phosphonic acid] the IC50 was 0.25 to 0.499 µM.

In the case of `O=P(O)(O)C(F)(F)c1ccc(CN(Cc2ccc(Cl)c(Cl)c2)S(=O)(=O)c2ccc(Oc3ccccc3)cc2)cc1Br` [Compound 109, [(2-Bromo-4-{[(3,4-dichloro-benzyl)-(4-phenoxy-benzenesulfonyl)-amino]-methyl}-phenyl)-difluoro-methyl]-phosphonic acid], the IC50 is reported as 0.25 to 0.499 µM.

`COc1ccccc1S(=O)(=O)N(Cc1ccc(-c2nn[nH]n2)cc1)Cc1ccc(-c2nn[nH]n2)cc1` [Compound 110, 2-Methoxy-N,N-bis-[4-(2H-tetrazol-5-yl)-benzyl]-benzenesulfonamide] gave an IC50 greater than 25 µM.

Work on `COc1ccc(S(=O)(=O)N(Cc2ccc(C(=O)C(=O)O)cc2)Cc2ccc(S(C)(=O)=O)cc2)c(OC)c1` [Compound 111, (4-{[(2,4-Dimethoxy-benzenesulfonyl)-(4-methanesulfonyl-benzyl)-amino]-methyl}-phenyl)-oxo-acetic acid] yielded an IC50 greater than 25 µM.

In the case of `COc1ccccc1S(=O)(=O)N(Cc1ccc(C#N)cc1)Cc1ccc(N(S(=O)(=O)C(F)(F)F)S(=O)(=O)C(F)(F)F)cc1` [Compound 112, N-(4-[bis(N-trifluoro-methanesulfonyl)amino]benzyl)-N-(4-cyanobenzyl)-(2-methoxy)benzenesulfonamide], the IC50 is reported as greater than 25 µM.

With `COc1ccc(OC)c(S(=O)(=O)N(Cc2ccc(C(=O)C(=O)O)cc2)Cc2ccc(S(C)(=O)=O)cc2)c1` [Compound 113, (4-{[(2,5-Dimethoxy-benzenesulfonyl)-(4-methanesulfonyl-benzyl)-amino]-methyl}-phenyl)-oxo-acetic acid] the IC50 was greater than 25 µM.

`COc1ccccc1S(=O)(=O)N(Cc1ccc(C(F)(F)P(=O)(O)O)c(Br)c1)c1ccc(S(C)(=O)=O)cc1` [Compound 114, [(2-Bromo-4-{[(4-methanesulfonyl-phenyl)-(2-methoxy-benzenesulfonyl)-amino]-methyl}-phenyl)-difluoro-methyl]-phosphonic acid] gave an IC50 of 0.1 to 0.249 µM.

Compound `COc1ccccc1S(=O)(=O)N(Cc1ccc(-c2nnn[nH]2)cc1)Cc1ccc(S(C)(=O)=O)cc1` [Compound 115, N-(4-Methanesulfonyl-benzyl)-2-methoxy-N-[4-(1H-tetrazol-5-yl)-benzyl]-benzenesulfonamide] has an IC50 greater than 25 µM.

`COc1ccccc1S(=O)(=O)N(Cc1ccc(C(=O)O)cc1)Cc1ccc(-c2nnn[nH]2)cc1` [Compound 116, N-(4-[hydroxycarbonyl]-benzyl)-2-methoxy-N-[4-(1H-tetrazol-5-yl)-benzyl]-benzenesulfonamide] gave an IC50 greater than 25 µM.

Work on `COc1ccccc1S(=O)(=O)N(Cc1ccc(C#N)cc1)Cc1ccc(NS(=O)(=O)C(F)(F)F)cc1` [Compound 117, N-(4-(N-trifluoro-methanesulfonyl-amino]benzyl)-N-(4-cyanobenzyl)-(2-methoxy)benzenesulfonamide] yielded an IC50 greater than 25 µM.

`COc1ccccc1S(=O)(=O)N(Cc1ccc(C#N)cc1)Cc1ccc(NC(=O)C(=O)O)cc1` [Compound 118, N-(4-(N-oxalylamino]benzyl)-N-(4-cyanobenzyl)-(2-methoxy)benzenesulfonamide] gave an IC50 greater than 25 µM.

For `COc1ccc(OC)c(S(=O)(=O)N(Cc2ccc(C(O)CO)cc2)Cc2ccc(S(C)(=O)=O)cc2)c1` (centres unmarked) [Compound 119, N-[4-(1,2-Dihydroxy-ethyl)-benzyl]-N-(4-methanesulfonyl-benzyl)-2,5-dimethoxy-benzenesulfonamide], the IC50 was greater than 25 µM.

`COc1ccccc1S(=O)(=O)N(Cc1ccc(C#N)cc1)Cc1ccc(C=CC(=O)O)c(Br)c1` [Compound 120, 3-{2-Bromo-4-[N-(4-cyanobenzyl)-N-(2-methoxy-benzenesulfonyl)aminomethyl]-phenyl}-acrylic acid] showed an IC50 greater than 25 µM.

`O=C(O)CCc1ccc(S(=O)(=O)N(Cc2ccc(Cl)c(Cl)c2)Cc2ccc(C(F)(F)P(=O)(O)O)c(Br)c2)cc1` [Compound 122, 3-{4-[[3-Bromo-4-(difluoro-phosphono-methyl)-benzyl]-(3,4-dichloro-benzyl)-sulfamoyl]-phenyl}-propionic acid] gave an IC50 of 0.1 to 0.249 µM.

With `COc1ccccc1S(=O)(=O)N(Cc1ccc(C#N)cc1)Cc1ccc(C(O)C(O)C(=O)O)c(Br)c1` (centres unmarked) [Compound 123, 1,2-dihydroxy-3-{2-Bromo-4-[N-(4-cyanobenzyl)-N-(2-methoxy-benzenesulfonyl)aminomethyl]-phenyl}-propionic acid] the IC50 was greater than 25 µM.

`COc1ccccc1S(=O)(=O)N(Cc1ccc(C#N)cc1)Cc1ccc(C=CC(=O)O)cc1` [Compound 124, 3-{4-[N-(4-cyanobenzyl)-N-(2-methoxy-benzenesulfonyl)aminomethyl]-phenyl}-acrylic acid] gave an IC50 greater than 25 µM.

Compound `COc1ccccc1S(=O)(=O)N(Cc1ccc(C(=O)C(=O)O)cc1)Cc1ccc(S(C)(=O)=O)cc1` [Compound 125, (4-{[(4-Methanesulfonyl-benzyl)-(2-methoxy-benzenesulfonyl)-amino]-methyl}-phenyl)-oxo-acetic acid] has an IC50 greater than 25 µM.

`COc1ccccc1S(=O)(=O)N(Cc1ccc(C(=NO)C(=O)O)cc1)Cc1ccc(S(C)(=O)=O)cc1` [Compound 126, Hydroxyimino-(4-{[(4-methanesulfonyl-benzyl)-(2-methoxy-benzenesulfonyl)-amino]-methyl}-phenyl)-acetic acid] was tested, and the IC50 was greater than 25 µM.

With `COc1ccccc1S(=O)(=O)N(Cc1ccc(C(O)C(=O)O)cc1)Cc1ccc(S(C)(=O)=O)cc1` (centres unmarked) [Compound 127, Hydroxy-(4-{[(4-methanesulfonyl-benzyl)-(2-methoxy-benzenesulfonyl)-amino]-methyl}-phenyl)-acetic acid] the IC50 was greater than 25 µM.

`COc1ccccc1S(=O)(=O)N(Cc1ccc(OCc2nn[nH]n2)cc1)Cc1ccc(S(C)(=O)=O)cc1` [Compound 128, N-(4-Methanesulfonyl-benzyl)-2-methoxy-N-[4-(2H-tetrazol-5-ylmethoxy)-benzyl]-benzenesulfonamide] gave an IC50 greater than 25 µM.

`COc1ccccc1S(=O)(=O)N(Cc1ccc(C#N)cc1)Cc1ccc(NC(=O)C(=O)O)cc1` [Compound 129, N-(4-(N-oxalylamino]benzyl)-N-(4-cyanobenzyl)-(2-methoxy)benzenesulfonamide] was tested, and the IC50 was greater than 25 µM.

For `CS(=O)(=O)N(Cc1ccc(C(F)(F)P(=O)(O)O)cc1)Cc1ccc(C(F)(F)P(=O)(O)O)cc1` [Compound 131, {[4-({[4-(Difluoro-phosphono-methyl)-benzyl]-methanesulfonyl-amino}-methyl)-phenyl]-difluoro-methyl}-phosphonic acid], the IC50 was 2.5 to 25 µM.

Compound `COc1ccccc1S(=O)(=O)N(Cc1ccc(C=CC(=O)O)cc1)Cc1ccc(C=CC(=O)O)cc1` [Compound 132, 3-(4-{[[4-(2-Carboxy-vinyl)-benzyl]-(2-methoxy-benzenesulfonyl)-amino]-methyl}-phenyl)-acrylic acid] has an IC50 greater than 25 µM.

`COc1ccccc1S(=O)(=O)N(Cc1ccc(C#N)cc1)Cc1ccc(NC(=O)C(=O)O)c(C(=O)O)c1` [Compound 133] showed an IC50 greater than 25 µM.

`COc1ccccc1S(=O)(=O)N(Cc1ccc(S(C)(=O)=O)cc1)Cc1ccc(OCC(=O)O)c(C(=O)O)c1` [Compound 134, 2-Carboxymethoxy-5-{[(4-methanesulfonyl-benzyl)-(2-methoxy-benzenesulfonyl)-amino]-methyl}-benzoic acid] showed an IC50 greater than 25 µM.

In the case of `COc1ccccc1S(=O)(=O)N(Cc1ccc(C#N)cc1)Cc1ccc(Nc2c(O)c(=O)c2=O)cc1` [Compound 135, N-(4-Cyano-benzyl)-N-[4-(2-hydroxy-3,4-dioxo-cyclobut-1-enylamino)-benzyl]-2-methoxy-benzenesulfonamide], the IC50 is reported as greater than 25 µM.

For `COc1ccccc1S(=O)(=O)N(Cc1ccc(N(CC(=O)O)C(=O)C(=O)O)cc1)Cc1ccc(S(C)(=O)=O)cc1` [Compound 136, N-Carboxymethyl-N-(4-{[(4-methanesulfonyl-benzyl)-(2-methoxy-benzenesulfonyl)-amino]-methyl}-phenyl)-oxalamic acid], the IC50 was greater than 25 µM.

For `COc1ccccc1S(=O)(=O)N(Cc1ccc(S(C)(=O)=O)cc1)Cc1ccc(C(F)(F)P(=O)(O)O)c(Cl)c1` [Compound 137, [(2-Chloro-4-{[(4-methanesulfonyl-benzyl)-(2-methoxy-benzenesulfonyl)-amino]-methyl}-phenyl)-difluoro-methyl]-phosphonic acid], the IC50 was 0.25 to 0.499 µM.

`COc1ccccc1S(=O)(=O)N(Cc1ccc(OCc2nnn[nH]2)cc1)Cc1ccc(OCc2nnn[nH]2)cc1` [Compound 138, 2-Methoxy-N,N-bis-[4-(1H-tetrazol-5-ylmethoxy)-benzyl]-benzenesulfonamide] showed an IC50 greater than 25 µM.

`COc1ccccc1S(=O)(=O)N(Cc1ccc(C#N)cc1)Cc1ccc(NS(=O)(=O)C(F)(F)F)c(C(=O)O)c1` [Compound 139, 5-{[(4-Cyano-benzyl)-(2-methoxy-benzenesulfonyl)-amino]-methyl}-2-trifluoromethanesulfonylamino-benzoic acid] was tested, and the IC50 was greater than 25 µM.
